Experiments:
Human recombinant HDAC1 = target: T1, Human recombinant HDAC1 (Homo sapiens, UniProt Q13547); assay: HDAC enzyme activity test, HDAC1; type: biochemical; conditions: Table 12; read-out: Inhibition ability (IC50) HDAC1
T1 construct: purchased Enzo Life Science Co. (named for the kit; assigned to the enzyme from the BML- catalogue prefix) BML-SE456
Procedure: (§1) Then, 0.3 μg of enzyme and 10 μM of substrate per well were added, reacted at 30° C. for 60 minutes. Thereto, Fluor de Lys® Developer II (BML-KI176) was added and reacted for 30 minutes. […] From the data, the respective IC50 were calculated by GraphPad Prism 4.0 program.

human recombinant HDAC6 = target: T2, human recombinant HDAC6 (Homo sapiens, UniProt Q9UBN7); assay: HDAC enzyme activity test, HDAC6; type: biochemical; conditions: Table 12; for Selectivity for HDAC6, HD1/HD6: ratio HDAC1 IC50 / HDAC6 IC50; for IC50: read-out: Inhibition ability (IC50) HDAC6
T2 construct: purchased Calibiochem Co. (so in the source) 382180
T2 sequence (Q9UBN7 1-1215): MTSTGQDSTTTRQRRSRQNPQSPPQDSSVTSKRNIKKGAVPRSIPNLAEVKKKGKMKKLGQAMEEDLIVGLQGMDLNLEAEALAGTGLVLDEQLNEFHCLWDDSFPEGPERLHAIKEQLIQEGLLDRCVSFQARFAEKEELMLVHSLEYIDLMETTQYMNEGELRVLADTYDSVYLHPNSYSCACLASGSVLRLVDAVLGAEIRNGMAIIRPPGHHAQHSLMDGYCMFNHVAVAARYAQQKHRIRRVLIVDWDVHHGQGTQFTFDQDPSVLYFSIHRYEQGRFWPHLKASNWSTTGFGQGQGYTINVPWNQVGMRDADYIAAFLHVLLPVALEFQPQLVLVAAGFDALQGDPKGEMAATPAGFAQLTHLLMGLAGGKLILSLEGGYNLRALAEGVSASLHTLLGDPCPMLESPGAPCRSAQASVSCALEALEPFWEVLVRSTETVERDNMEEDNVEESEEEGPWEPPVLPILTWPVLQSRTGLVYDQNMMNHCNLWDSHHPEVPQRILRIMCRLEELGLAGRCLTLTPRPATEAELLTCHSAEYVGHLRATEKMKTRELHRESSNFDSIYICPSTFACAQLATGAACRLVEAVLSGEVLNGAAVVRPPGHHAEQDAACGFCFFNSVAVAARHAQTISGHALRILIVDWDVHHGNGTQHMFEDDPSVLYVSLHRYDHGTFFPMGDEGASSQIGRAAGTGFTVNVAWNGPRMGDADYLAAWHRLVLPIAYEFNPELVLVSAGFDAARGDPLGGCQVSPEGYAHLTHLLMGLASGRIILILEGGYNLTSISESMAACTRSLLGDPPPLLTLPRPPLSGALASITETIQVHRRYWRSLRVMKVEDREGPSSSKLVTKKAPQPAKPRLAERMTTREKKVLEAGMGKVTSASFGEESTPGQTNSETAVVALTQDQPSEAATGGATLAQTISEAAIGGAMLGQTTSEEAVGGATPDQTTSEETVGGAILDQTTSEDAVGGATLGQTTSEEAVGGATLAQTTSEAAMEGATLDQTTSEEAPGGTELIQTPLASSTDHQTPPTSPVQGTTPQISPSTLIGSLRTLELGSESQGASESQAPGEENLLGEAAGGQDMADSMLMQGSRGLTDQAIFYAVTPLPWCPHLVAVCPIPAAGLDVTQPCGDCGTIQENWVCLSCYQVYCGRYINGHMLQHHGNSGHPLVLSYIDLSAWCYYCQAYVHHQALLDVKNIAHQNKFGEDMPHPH
Procedure: as §1

T1 sequence (Q13547 whole entry): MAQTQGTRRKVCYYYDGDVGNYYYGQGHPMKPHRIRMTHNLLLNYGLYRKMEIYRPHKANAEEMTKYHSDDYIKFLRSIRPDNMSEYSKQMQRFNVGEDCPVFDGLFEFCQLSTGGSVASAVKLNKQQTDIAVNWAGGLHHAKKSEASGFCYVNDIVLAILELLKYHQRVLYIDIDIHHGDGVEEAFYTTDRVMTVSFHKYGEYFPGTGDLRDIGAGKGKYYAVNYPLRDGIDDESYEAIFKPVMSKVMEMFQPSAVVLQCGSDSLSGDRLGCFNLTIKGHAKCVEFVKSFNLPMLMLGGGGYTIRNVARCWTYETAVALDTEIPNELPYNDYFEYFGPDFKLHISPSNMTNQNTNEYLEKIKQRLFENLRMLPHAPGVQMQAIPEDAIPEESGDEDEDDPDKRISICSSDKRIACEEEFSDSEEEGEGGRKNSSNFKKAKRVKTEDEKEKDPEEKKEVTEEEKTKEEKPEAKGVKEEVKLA

Row | SMILES | IC50 (Human recombinant HDAC1) [nM] | Selectivity for HDAC6, HD1/HD6 (human recombinant HDAC6) | IC50 (human recombinant HDAC6) [nM]
1 | CC1(C)CC(=O)c2c(n(CCCCCC(=O)NO)c3ccccc23)C1 [Compound 18, 6-(2,2-dimethyl-4-oxo-1,2,3,4-tetrahydrocarbazol-9-yl)-N-hydroxyhexanamide] | 1320 | 18.5 | 71.4
2 | CC1(C)CC(=O)c2c(n(CCCCCCC(=O)NO)c3ccccc23)C1 [Compound 20, 7-(2,2-dimethyl-4-oxo-1,2,3,4-tetrahydrocarbazol-9-yl)-N-hydroxyheptanamide] | 125 | 16.8 | 7.44
3 | CC1(C)CC(=O)c2c(n(CCCCCC(=O)NO)c3ccc(Br)cc23)C1 [Compound 40, 6-(6-bromo-2,2-dimethyl-4-oxo-1,2,3,4-tetrahydrocarbazol-9-yl)-N-hydroxyhexanamide] | 8880 | 75.5 | 117
4 | CC1(C)CC(=O)c2c(n(CCCCCC(=O)NO)c3cc(Br)ccc23)C1 [Compound 41, 6-(7-bromo-2,2-dimethyl-4-oxo-1,2,3,4-tetrahydrocarbazol-9-yl)-N-hydroxyhexanamide] | 98.8 | 50.7 | 1.95
5 | CC1(C)CC(=O)c2c(n(Cc3ccc(C(=O)NO)cc3)c3ccc(Br)cc23)C1 [Compound 45, 4-((6-bromo-2,2-dimethyl-4-oxo-1,2,3,4-tetrahydrocarbazol-9-yl)methyl)-N-hydroxybenzamide] | 5480 | 42.1 | 130
6 | CC1(C)CC(=O)c2c(n(CCCCCC(=O)NO)c3c(Br)cccc23)C1 [Compound 46, 6-(1-bromo-7,7-dimethyl-5-oxo-5,6,7,8-tetrahydrocarbazol-9-yl)-N-hydroxyhexanamide] | 2070 | 8.2 | 253
7 | CC1(C)CC(=O)c2c(n(CCCCCC(=O)NO)c3c(Cl)cc(Cl)cc23)C1 [Compound 47, 6-(1,3-dichloro-7,7-dimethyl-5-oxo-5,6,7,8-tetrahydrocarbazol-9-yl)-N-hydroxyhexanamide] | 2910 | 6.9 | 421
8 | CC1(C)CC(=O)c2c(n(CCCCCC(=O)NO)c3c(Cl)ccc(Cl)c23)C1 [Compound 48, 6-(1,4-dichloro-7,7-dimethyl-5-oxo-5,6,7,8-tetrahydrocarbazol-9-yl)-N-hydroxyhexanamide] | 4370 | 30.1 | 145
9 | CC1(C)CC(=O)c2c(n(Cc3ccc(C(=O)NO)cc3)c3c(Cl)ccc(Cl)c23)C1 [Compound 49, 4-((1,4-dichloro-7,7-dimethyl-5-oxo-5,6,7,8-tetrahydrocarbazol-9-yl)methyl)-N-hydroxybenzamide] | 13500 | 144.8 | 93
10 | CC1(C)CC(=O)c2c(n(CCCCCCC(=O)NO)c3ccc(Br)cc23)C1 [Compound 50, 7-(6-bromo-2,2-dimethyl-4-oxo-1,2,3,4-tetrahydrocarbazol-9-yl)-N-hydroxyheptanamide] | 158 | 17.7 | 8.95
11 | CC1(C)CC(=O)c2c(n(CCCCCCC(=O)NO)c3c(Cl)cc(Cl)cc23)C1 [Compound 51, 7-(1,3-dichloro-7,7-dimethyl-5-oxo-5,6,7,8-tetrahydrocarbazol-9-yl)-N-hydroxyheptanamide] | 1330 | 12.5 | 106
12 | CC1(C)CC(=O)c2c(n(CCCCCCC(=O)NO)c3c(Br)cccc23)C1 [Compound 52, 7-(1-bromo-7,7-dimethyl-5-oxo-5,6,7,8-tetrahydrocarbazol-9-yl)-N-hydroxyheptanamide] | 662 | 27.7 | 23.9
13 | CC1(C)CC(=O)c2c(n(Cc3ccc(C(=O)NO)cc3)c3cccc(Br)c23)C1 [Compound 53, 4-((5-bromo-2,2-dimethyl-4-oxo-1,2,3,4-tetrahydrocarbazol-9-yl)methyl)-N-hydroxybenzamide] | 5760 | 88.7 | 64.9
14 | CC1(C)CC(=O)c2c(n(Cc3ccc(C(=O)NO)cc3)c3cc(Br)ccc23)C1 [Compound 54, 4-((7-bromo-2,2-dimethyl-4-oxo-1,2,3,4-tetrahydrocarbazol-9-yl)methyl)-N-hydroxybenzamide] | 1470 | 24.7 | 59.5
15 | CC1(C)CC(=O)c2c(n(CCCCCCC(=O)NO)c3ccc(F)cc23)C1 [Compound 56, 7-(6-fluoro-2,2-dimethyl-4-oxo-1,2,3,4-tetrahydrocarbazol-9-yl)-N-hydroxyheptanamide] | 242 | 58.5 | 4.13
16 | CC1(C)CC(=O)c2c(n(Cc3ccc(C(=O)NO)cc3)c3ccc(F)cc23)C1 [Compound 57, 4-((6-fluoro-2,2-dimethyl-4-oxo-1,2,3,4-tetrahydrocarbazol-9-yl)methyl)-N-hydroxybenzamide] | 3770 | 168.3 | 22.4
17 | CC1(C)CC(=O)C2c3c(F)cccc3N(CCCCCC(=O)NO)C2C1 (stereo not drawn) [Compound 60, 6-(5-fluoro-2,2-dimethyl-4-oxo-2,3,4,4a-tetrahydro-1H-carbazol-9(9aH)-yl)-N-hydroxyhexanamide] | 9180 | 127.4 | 72
18 | CC1(C)CC(=O)c2c(n(Cc3ccc(C(=O)NO)cc3)c3cc(F)c(F)cc23)C1 [Compound 71, 4-((6,7-difluoro-2,2-dimethyl-4-oxo-1,2,3,4-tetrahydrocarbazol-9-yl)methyl)-N-hydroxybenzamide] | 4990 | 37 | 134
19 | CC1(C)CC(=O)c2c(n(CCCCCC(=O)NO)c3cc(F)c(F)cc23)C1 [Compound 72, 6-(6,7-difluoro-2,2-dimethyl-4-oxo-1,2,3,4-tetrahydrocarbazol-9-yl)-N-hydroxyhexanamide] | 6060 | 28.2 | 215
20 | CC1(C)CC(=O)c2c(n(Cc3ccc(C(=O)NO)cc3)c3ccc(F)c(F)c23)C1 [Compound 73, 4-((5,6-difluoro-2,2-dimethyl-4-oxo-1,2,3,4-tetrahydrocarbazol-9-yl)methyl)-N-hydroxybenzamide] | 3910 | 52.1 | 75.1
21 | CC1(C)CC(=O)c2c(n(CCCCCC(=O)NO)c3ccc(F)c(F)c23)C1 [Compound 74, 6-(5,6-difluoro-2,2-dimethyl-4-oxo-1,2,3,4-tetrahydrocarbazol-9-yl)-N-hydroxyhexanamide] | 4720 | 33.3 | 141
22 | CC1(C)CC(=O)c2c(n(CCCCCC(=O)NO)c3cc(F)ccc23)C1 [Compound 76, 6-(7-fluoro-2,2-dimethyl-4-oxo-1,2,3,4-tetrahydrocarbazol-9-yl)-N-hydroxyhexanamide] | 5230 | 30.7 | 171
23 | Cc1nccn1CC1CCc2c(c3ccccc3n2Cc2ccc(C(=O)NO)cc2)C1=O (stereo not drawn) [Compound 85, N-hydroxy-4-((3-((2-methyl-1H-imidazole-1-yl)methyl)-4-oxo-1,2,3,4-tetrahydrocarbazol-9-yl)methyl)benzamide] | 2550 | 225 | 11.3
24 | O=C(NO)c1ccc(Cn2c3c(c4ccccc42)C(=O)C(CN2CCCCC2)CC3)cc1 (stereo not drawn) [Compound 86, N-hydroxy-4-((4-oxo-3-(piperidin-1-ylmethyl)-1,2,3,4-tetrahydrocarbazol-9-yl)methyl)benzamide] | 2840 | 286.1 | 9.94
